Measurements as given in patent publication US5169833A, “Substituted cyclic pentapeptides” (G. D. Searle & Co., priority 1991, dated 1992).
pIC50: −log10 of the molar value. Structures can show the parent of a compound that is named as a salt.

Key:
δ opioid receptors = δ opioid receptors (Rattus norvegicus, UniProt P33533); assay: Opiate Binding Assay, δ (3[H]-DSLET displacement)
μ opioid receptors = μ opioid receptors (Rattus norvegicus, UniProt P33535); assay: Opiate Binding Assay, μ (3[H]-DAMPGO displacement)
CD Charles River mice = assay: Writhing Assay (PBQ-induced writhing); format: in vivo; settings: mouse; for Writhing Assay, number of mice out of ten in which peptide was active, Intragastric: i.g., 15 min before PBQ; for Writhing Assay, number of mice out of ten in which peptide was active, Intragastric / Writhing Assay, number of mice out of ten in which peptide was active, Subcutaneous: 10 mpk screening dose; for Writhing Assay ED50 value, Subcutaneous / Writhing Assay, number of mice out of ten in which peptide was active, Subcutaneous: s.c.; for Writhing Assay ED50 value, Subcutaneous: 25 min before PBQ i.p.
Source text: The "Writhing Assay" is one of the most widely-used experimental procedures for measuring the analgesic activity of different narcotic and nonnarcotic analgesic agents, and involves the continuous, chemically-induced pain of visceral origin to an animal, such as a mouse or rat. [Gyires et al., Arch. int. Pharmacodyn, 267, 131-140 (1984); C. Vander Wende et al., Fed. Proc., 15, 494 (1956); Koster et al., Fed. Proc., 18, 412 (1959); and Witken et al., J. Pharmacol. Exp. Ther., 133, 400-408 (1961).] Chemicals Which may be used to induce this pain include phenylbenzoquinone (PBQ) and acetic acid. As a result of the chemical irritation to the animal, a characteristic stretching and writhing of the animal (dorsiflexion of the animal's back, extension of its hindlimbs and the strong contraction of its abdominal musculature) will generally occur. […] Drugs which reduce the number of writhes of the animal appear to restore the normal nociceptive threshold of the animal.
This assay was conducted generally in the manner described by R. I. Taber, "Predictive Value of Analgesic Assays in Mice and Rats," Advances in Biochemical Psychopharmacology, 8, 191 (1974).
Two hundred CD Charles River mice, weighing 20 to 30 grams were used in this assay.
Twenty-five minutes after subcutaneous administration, and fifteen minutes after intragastric administration, to the mice of 10 mg per kilogram (mpk) of body weight of either a Test Pentapeptide or the Mosberg Pentapeptide, 0.1 ml per 10 g of body weight of a 0.025% w/v solution of PBQ was injected intraperitoneally into each mouse. Some mice were given saline in place of a Test Pentapeptide, or the Mosberg Pentapeptide, and were used as a control group.
Five minutes later, each mouse was individually placed into a glass beaker for observation, and the number of writhes occurring during the following ten-minute period was counted.
A pentapeptide compound was considered to be "active" (to have produced analgesia in a mouse) if, after the administration of 10 mg per kilogram (mpk) of body weight of the compound to the mouse, the number of writhes elicited by a mouse injected with PBQ was equal to, or less than, one-half the median number of writhes recorded for the saline-treated control group of mice that day, as described by R. I. Taber, supra.
The standard initial screening dose of a test compound employed in this assay was 10 mpk […] for both routes of administration. […] A maximum likelihood function was used to determine the ED50 value. (The slopes of the dose-response curves for all test compounds analyzed were compared as described by Tallarida and Murray, Manual of Pharmacologic Calculations, Page 11 (Springer Verlag, New York, 1981)).

[1] = tested on: Charles River albino mice; assay: Tail Flick Assay (mouse); format: in vivo; settings: for Tail Flick Assay activity, Subcutaneous: s.c.
Source text: (§1) The "Tail Flick Assay" and the "Hot Plate Assay" (also known as the "Hind Paw Lick Assay") use thermal pain of transient duration, and are tests in which the pain threshold of the mice or rats being analyzed has not been altered. They are useful for evaluating the ability of a compound or drug to increase the animal's pain threshold (i.e. prolong response latencies), rather than to restore normal thresholds.
(§2) The heat-induced response to the Tail Flick Assay is a reflex reaction mediated at the level of the spinal cord. The heat-induced response to the Hot Plate Assay, however, is a more complex behavior requiring integration at higher centers in the brain.
The Tail Flick Assay and the Hot Plate Assay were performed generally in the manner described by G. Woolfe et al., "The Evaluation of the Analgesic Action of Pethidine Hydrochloride (Demerol)," J. Pharmacol. Exp. Ther., 80, 300, (1944), F. D'Amour et al., "A Method for Determining Loss of Pain Sensation," J. PharmacoI. Exp. Ther., 72, 74, 300-307 (1941), and E. Drower et al., "The Antinociceptive Effects of Prostaglandin Antagonists in the Rat," European Journal of Pharmacology, 133, 249-256 (1987).
Male Charles River albino mice and male Charles River Sprague-Dawley rats weighing 20 to 30 g, and 200 to 250 g, respectively, were employed in these assays.
Tail flick response latencies (defined as the time that elapsed between the onset of a high intensity beam of light and the reflex removal of the mouse or rat's tail) and hot plate response latencies (defined as the time that elapsed between the placement of a mouse or rat on a 55 degrees Celsius surface and a lick of the hind paw) were separately, but consecutively, measured before (baseline) and again at fixed intervals after subcutaneous or intracerebroventricular administration of one of the pentapeptide compounds of the invention, the Mosberg Pentapeptide, or after the administration of saline (controls). The cut-off latencies established to prevent tissue damage in the animals are 12 seconds or 14 seconds in the mouse and rat, respectively, in the Tail Flick Assay, and 40 seconds for both species in the Hot Plate Assay. The significance of any increase in tail flick response latency or hot plate response latency is determined using analyses of variance.
One way analyses of variance were used to determine the significance of the effect of the pentapeptides on response latencies. […]
(§3) "Activity" or "Inactivity" was determined at a particular concentration of the peptide by a significant increase in tail flick or hot plate latencies above normal latencies.
(§4) The data resulting from the Tail Flick Assay and the Hot Plate Assay are presented in Tables II and III below, respectively. The numbers in parentheses are calculated ED50 values.

[2] = tested on: Charles River Sprague-Dawley rats; assay: Tail Flick Assay (rat); format: in vivo; settings: s.c., at 30 mpk
Source text: as §1
The heat-induced response to the Tail Flick Assay is a reflex reaction mediated at the level of the spinal cord. The heat-induced response to the Hot Plate Assay, however, is a more complex behavior requiring integration at higher centers in the brain. […]
Tail flick response latencies (defined as the time that elapsed between the onset of a high intensity beam of light and the reflex removal of the mouse or rat's tail) and hot plate response latencies (defined as the time that elapsed between the placement of a mouse or rat on a 55 degrees Celsius surface and a lick of the hind paw) were separately, but consecutively, measured before (baseline) and again at fixed intervals after subcutaneous or intracerebroventricular administration of one of the pentapeptide compounds of the invention, the Mosberg Pentapeptide, or after the administration of saline (controls). […]

[3] = tested on: Charles River albino mice; assay: Hot Plate Assay (mouse); format: in vivo
Source text: as §1, §2
The Tail Flick Assay and the Hot Plate Assay were performed generally in the manner described by G. Woolfe et al., "The Evaluation of the Analgesic Action of Pethidine Hydrochloride (Demerol)," J. Pharmacol. Exp. Ther., 80, 300, (1944), F. D'Amour et al., "A Method for Determining Loss of Pain Sensation," J. PharmacoI. […]
Tail flick response latencies (defined as the time that elapsed between the onset of a high intensity beam of light and the reflex removal of the mouse or rat's tail) and hot plate response latencies (defined as the time that elapsed between the placement of a mouse or rat on a 55 degrees Celsius surface and a lick of the hind paw) were separately, but consecutively, measured before (baseline) and again at fixed intervals after subcutaneous or intracerebroventricular administration of one of the pentapeptide compounds of the invention, the Mosberg Pentapeptide, or after the administration of saline (controls). […] The significance of any increase in tail flick response latency or hot plate response latency is determined using analyses of variance. […]
as §3, §4

[4] = i.c.v., dose giving half the maximum possible increase in latency

Chain of δ opioid receptors (P33533 whole entry): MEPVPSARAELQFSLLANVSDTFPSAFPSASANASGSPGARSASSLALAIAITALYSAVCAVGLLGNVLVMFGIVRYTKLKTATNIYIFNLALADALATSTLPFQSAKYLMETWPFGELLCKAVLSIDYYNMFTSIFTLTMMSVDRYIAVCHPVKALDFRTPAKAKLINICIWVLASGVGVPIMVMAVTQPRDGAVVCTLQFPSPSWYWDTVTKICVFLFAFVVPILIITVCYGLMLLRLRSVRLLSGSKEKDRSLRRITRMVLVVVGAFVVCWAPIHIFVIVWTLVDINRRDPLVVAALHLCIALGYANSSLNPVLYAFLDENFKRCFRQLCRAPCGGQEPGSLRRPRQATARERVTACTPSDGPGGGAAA
Chain of μ opioid receptors (P33535 whole entry): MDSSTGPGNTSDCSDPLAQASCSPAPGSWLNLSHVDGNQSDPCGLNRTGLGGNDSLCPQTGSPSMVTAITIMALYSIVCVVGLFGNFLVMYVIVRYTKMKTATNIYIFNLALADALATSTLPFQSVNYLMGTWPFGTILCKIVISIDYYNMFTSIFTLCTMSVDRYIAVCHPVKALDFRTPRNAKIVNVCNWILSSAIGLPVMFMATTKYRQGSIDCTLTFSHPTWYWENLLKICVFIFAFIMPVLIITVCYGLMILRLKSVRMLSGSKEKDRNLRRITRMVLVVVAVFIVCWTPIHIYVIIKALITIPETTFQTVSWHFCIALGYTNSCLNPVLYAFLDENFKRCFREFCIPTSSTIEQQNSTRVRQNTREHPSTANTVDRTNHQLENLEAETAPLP

Compound: Cc1cc(O)c(C)c(C)c1CC(N)C(=O)N[C@H]1C(=O)NCC(=O)N[C@@H](Cc2ccccc2)C(=O)N[C@@H](C(=O)O)C(C)(C)SSC1(C)C (single isomer, unassigned) [Example 20 (Diastereomer A), 2,3,6-trimethyl-L-tyrosyl-3-mercapto-D-valylglycyl-L-phenylalanyl-3-mercapto-D-valine, cyclic (2→5) disulfide]
- pIC50 (δ opioid receptors): 7.62
- pIC50 (μ opioid receptors): 4.62

Compound: Cc1ccc(CC(N)C(=O)N[C@H]2C(=O)NCC(=O)N[C@@H](Cc3ccccc3)C(=O)N[C@@H](C(=O)O)C(C)(C)SSC2(C)C)c(C)c1O (single isomer, unassigned) [Example 21 (Diastereomer B), 3-hydroxy-2,4-dimethyl-L-phenylalanyl-3-mercapto-D-valyglycyl-L-phenylalanyl-3-mercapto-D-valine, cyclic (2→5)-disulfide]
- pIC50 (δ opioid receptors): 6.82

Compound: Cc1cc(O)cc(C)c1C[C@H](N)C(=O)N[C@H]1C(=O)NCC(=O)N[C@@H](Cc2ccccc2)C(=O)N[C@@H](C(=O)O)C(C)(C)SSC1(C)C [Example 4, 2,6-dimethyl-L-tyrosyl-3-mercapto-D-valylglycyl-L-phenylalanyl-3-mercapto-D-valine, cyclic (2→5)-disulfide]
- Writhing Assay, number of mice out of ten in which peptide was active, Intragastric (CD Charles River mice): 3/10
- Writhing Assay ED50 value, Subcutaneous (CD Charles River mice): 2.6 mpk
- Tail Flick Assay calculated ED50 value, Intracerebroventricular [1, 4]: 0.28 µg
- Tail Flick Assay activity, Subcutaneous ([1]; at 33 mpk): Active
- Tail Flick Assay activity, Subcutaneous [2]: Active
- Hot Plate Assay calculated ED50 value, Intracerebroventricular [3, 4]: 0.20 µg

Compound: COC(=O)[C@@H]1NC(=O)[C@H](Cc2ccccc2)NC(=O)CNC(=O)[C@H](NC(=O)[C@@H](N)Cc2c(C)cc(O)cc2C)C(C)(C)SSC1(C)C [Example 16, -dimethyl-L-tyrosyl-3-mercapto-D-valylglycyl-L-phenylalanyl-3-mercapto-D-valine, cyclic (2→5)-disulfide, methyl ester]
- Writhing Assay, number of mice out of ten in which peptide was active, Intragastric (CD Charles River mice): 3/10
- Writhing Assay ED50 value, Subcutaneous (CD Charles River mice): 2.1 mpk
- Tail Flick Assay activity, Intracerebroventricular ([1]; i.c.v., at 10 μg): Active
- Tail Flick Assay activity, Subcutaneous ([1]; at 30 mpk): Active
- Hot Plate Assay activity, Intracerebroventricular ([3]; i.c.v., at 10 μg): Active
- Hot Plate Assay activity, Subcutaneous ([3]; s.c., at 30 mpk): Active

Compound: Cc1cc(O)cc(C)c1C[C@H](N)C(=O)N[C@H]1C(=O)NCC(=O)N[C@@H](Cc2ccc(F)cc2)C(=O)N[C@@H](C(N)=O)C(C)(C)SSC1(C)C [Example 23, 2,6-dimethyl-L-tyrosyl-3-mercapto-D-valylglycyl-4-fluoro-L-phenylalanyl-3-mercapto-D-valinamide, cyclic (2→5)-disulfide]
- rank order of potency in the Writhing Assay (CD Charles River mice; from Table I): most potent compound of the invention tested
- Writhing Assay, number of mice out of ten in which peptide was active, Intragastric (CD Charles River mice): 4/10
- Writhing Assay ED50 value, Subcutaneous (CD Charles River mice): 1.9 mpk

Compound: Cc1cc(O)cc(C)c1C[C@H](N)C(=O)N[C@H]1C(=O)NCC(=O)N[C@@H](CC2CCCCC2)C(=O)N[C@@H](C(N)=O)C(C)(C)SSC1(C)C [Example 24, 2,6-dimethyl-L-tyrosyl-3-mercapto-D-valylglycyl-3-cyclohexyl-L-alanyl-3-mercapto-D-valinamide, cyclic (2→5)-disulfide]
- Writhing Assay, number of mice out of ten in which peptide was active, Intragastric (CD Charles River mice): 2/10
- Writhing Assay, number of mice out of ten in which peptide was active, Subcutaneous (CD Charles River mice): 2/10
- Mean IC50 μ/δ Ratio (δ opioid receptors; ratio of mean IC50 values for μ and δ opioid receptors, above 1.0 = δ specific): 1.6

Compound: Cc1cc(O)cc(C)c1C[C@H](N)C(=O)N[C@H]1C(=O)NCC(=O)N[C@@H](Cc2ccc(Cl)cc2)C(=O)N[C@@H](C(=O)OCc2ccccc2)C(C)(C)SSC1(C)C [Example 41, 2,6-dimethyl-L-tyrosyl-3-mercapto-D-valylglycyl-4-chloro-L-phenylalanyl-3-mercapto-D-valine, cyclic (2→5)-disulfide, phenylmethyl ester, monohydrochloride]
- Writhing Assay, number of mice out of ten in which peptide was active, Intragastric (CD Charles River mice): 4/10
- Writhing Assay, number of mice out of ten in which peptide was active, Subcutaneous (CD Charles River mice): 3/10
